Measurements published in patent US10005756B2, “Pyrrolidinone derivatives as MetAP-2 inhibitors” (Merck Patent GmbH, priority 2014, dated 2018).
Read-outs that look alike come from different tables or passages of the source.

Test system: human umbilical vein endothelial cells (HUVEC)
Assay: HUVEC proliferation quantified by BrdU incorporation
Assay type: cell-based
Details: read-out: IC50 HUVEC
Method: Determination of the Proliferation Inhibition by Inhibitors of Methionine Aminopeptidase 2 in the BrdU Proliferation Test (Cellular Assay)
After detachment of the cells by means of trypsin/EDTA, the number of living cells is determined, and the cells are sown in a density of 1000 cells per cavity in a total volume of 175 μl (cavities are coated in advance either with supplemented culture medium for 1-2 hours at 37° C. or with 1.5% gelatine for 0.5-2 hours at 37° C.). After cultivation for 24 hours, the test substances are added in various concentrations (for example final concentrations 30 μM to 0.03 nM in 10-fold dilution steps) and a volume of 25 μl. The DMSO concentration is kept constant at 0.3%. […] To this end, the cells are treated with a fixative for 30 min at room temperature and subsequently incubated with a peroxidase-labelled anti-BrdU antibody (diluted 1:100 in antibody dilution buffer) for 60 min at room temperature. […] The colour development is stopped after 15 min by addition of 25 μl of a 1M sulfuric acid solution. […] The controls used are cavities containing DMSO-treated cells (100% control) or empty cavities (blank value).
HUVEC Proliferation Quantified by BrdU Incorporation
HUVEC Means Human Umbilical Vein Endothelial Cells
HUVEC proliferation is measured after a 5 day incubation period using incorporation of BrdU as a measure of cell cycle activity. Cells are incubated in the presence or absence of test substances. During the last 18 to 24 hours of the incubation period BrdU is added to the medium. BrdU is incorporated into the DNA as the cells progress through S-phase (DNA synthesis) of the cell cycle. The cells are fixed and the amount of BrdU incorporated can be quantified using a commercial ELISA for detection of BrdU.
HUVEC are routinely cultured in EGM MV medium and used between passages 3 and 8.
All substances are run in triplicate.
Reference compounds are run in every assay.
Data is analyzed using the Assay Explorer program. Briefly, the blank is subtracted from all values, the triplicates are averaged and normalized to the untreated. EC50 is determined from a 4-parameter general sigmoidal curve (Hill fit y=(s0−slnf)/(1+(x/AC50)^nHill)+slnf) in Assay Explorer, Symyx). The processed data (EC50 or % Effect if no EC50 if reached, Efficacy) is uploaded directly from Assay Explorer to the MSRDB.

Compound: CC(C)(C)OC(=O)C(CCC(N)=O)NC(=O)c1cc2cc(N3CC[C@](O)(C(=O)NCc4cc(F)cc(Cl)c4)C3=O)ccc2[nH]1 (stereo in doubt) [Compound A27]
- IC50 (HUVEC): 0.48 µM

Compound: NC(=O)c1cc2cc(N3CC[C@@](O)(C(=O)NCc4cc(F)cc(F)c4)C3=O)ccc2[nH]1 (stereo in doubt) [Compound A86]
- IC50 (HUVEC): 0.071 µM

Compound: O=C(NCc1cc(F)cc(Cl)c1)[C@@]1(O)CCN(c2cccc(S(=O)(=O)N3CCNCC3)c2)C1=O [Compound A1]
- IC50 (HUVEC): 1 µM

Compound: C[C@H](c1ccccc1)N1CC[C@](O)(C(=O)NCc2cc(F)cc(Cl)c2)C1=O [Compound A2]
- IC50 (HUVEC): 7 µM

Compound: C[C@@H](c1ccccc1)N1CC[C@](O)(C(=O)NCc2cc(F)cc(Cl)c2)C1=O [Compound A3]
- IC50 (HUVEC): 0.73 µM

Compound: O=C(NCc1cc(F)cc(Cl)c1)[C@@]1(O)CCN(c2cnc(Cl)c(F)c2)C1=O [Compound A4]
- IC50 (HUVEC): 11 µM

Compound: CCNS(=O)(=O)c1ccc(N2CC[C@](O)(C(=O)NCc3cc(F)cc(Cl)c3)C2=O)cc1 [Compound A5]
- IC50 (HUVEC): 0.19 µM

Compound: N/C(=N\O)c1cc2cc(N3CC[C@](O)(C(=O)NCc4cc(F)cc(Cl)c4)C3=O)ccc2[nH]1 [Compound A6]
- IC50 (HUVEC): 0.03 µM

Compound: O=C(NCc1cc(F)cc(Cl)c1)C1(O)CCN(c2cccc(-c3nnn[nH]3)c2)C1=O (stereo not drawn) [Compound A7]
- IC50 (HUVEC): 30 µM

Compound: Cc1nnc(-c2cc3cc(N4CC[C@](O)(C(=O)NCc5cc(F)cc(Cl)c5)C4=O)ccc3[nH]2)o1 [Compound A8]
- IC50 (HUVEC): 0.017 µM

Compound: O=C(NCc1cc(F)cc(Cl)c1)[C@@]1(O)CCN(c2ccc3[nH]c(-c4nnco4)cc3c2)C1=O [Compound A9]
- IC50 (HUVEC): 0.014 µM

Compound: O=C(NCc1cc(F)cc(Cl)c1)[C@@]1(O)CCN(c2ccc3[nH]c(-c4nnn[nH]4)cc3c2)C1=O [Compound A10]
- IC50 (HUVEC): 3.8 µM

Compound: Cc1nc(-c2cc3cc(N4CC[C@](O)(C(=O)NCc5cc(F)cc(Cl)c5)C4=O)ccc3[nH]2)no1 [Compound A11]
- IC50 (HUVEC): 0.024 µM

Compound: O=C(NCc1cc(F)cc(Cl)c1)C1=CCN(c2ccccc2)C1=O [Compound A12]
- IC50 (HUVEC proliferation, BrdU incorporation): 3.3 µM

Compound: O=C(NCc1cc(F)cc(Cl)c1)C1(O)C(=O)N(c2ccccc2)CC1O (stereo not drawn) [Compound A13]
- IC50 (HUVEC): 2.5 µM

Compound: O=C(NCc1cc(F)cc(Cl)c1)C1(O)CCN(c2ccn[nH]2)C1=O (stereo not drawn) [Compound A15]
- IC50 (HUVEC): 5.2 µM

Compound: O=C(NCc1cc(F)cc(Cl)c1)C1(O)CCN(c2ccc3oc(=O)ccc3c2)C1=O (stereo not drawn) [Compound A16]
- IC50 (HUVEC): 3.5 µM

Compound: CC(=O)Nc1cc2cc(N3CCC(O)(C(=O)NCc4cc(F)cc(Cl)c4)C3=O)ccc2oc1=O (stereo not drawn) [Compound A17]
- IC50 (HUVEC): 1.1 µM

Compound: O=C(NCc1cc(F)cc(Cl)c1)C1(O)CCN(c2cccc(O)c2)C1=O (stereo not drawn) [Compound A18]
- IC50 (HUVEC): 0.18 µM

Compound: Nc1ccc(N2CCC(O)(C(=O)NCc3cc(F)cc(Cl)c3)C2=O)cc1/C=C/C(=O)O (stereo not drawn) [Compound A19]
- IC50 (HUVEC): 0.18 µM

Compound: O=C(NCc1cc(F)cc(Cl)c1)C1(O)CCN(C(CO)c2ccccc2)C1=O (stereo not drawn) [Compound A21]
- IC50 (HUVEC): 4.2 µM

Compound: O=C(NCc1cc(F)cc(Cl)c1)C1(O)CCN(c2ccc3[nH]c(Br)cc3c2)C1=O (stereo not drawn) [Compound A22]
- IC50 (HUVEC): 0.13 µM

Compound: O=C(NCc1cc(F)cc(Cl)c1)C1(O)CCN(c2ccc3[nH]c(-c4ccc(Cl)cc4)nc3c2)C1=O (stereo not drawn) [Compound A25]
- IC50 (HUVEC): 1.3 µM

Compound: O=C(NCc1cc(F)cc(Cl)c1)[C@@]1(O)CCN(c2cncnc2)C1=O [Compound A26]
- IC50 (HUVEC): 11 µM

Compound: O=C(NCc1cc(F)cc(Cl)c1)C1(O)CCN(c2ccc3c(c2)CS(=O)(=O)C3)C1=O (stereo not drawn) [Compound A28]
- IC50 (HUVEC): 0.53 µM

Compound: O=C(NCc1cc(F)cc(Cl)c1)C1(O)CCN(c2ccc(C(O)(C(F)(F)F)C(F)(F)F)cc2)C1=O (stereo not drawn) [Compound A29]
- IC50 (HUVEC): 1.5 µM

Compound: O=C(NCc1cc(F)cc(Cl)c1)[C@@]1(O)CCN(c2cnc3[nH]cc(Br)c3c2)C1=O [Compound A33]
- IC50 (HUVEC): 0.0054 µM

Compound: O=C(NCc1cc(F)cc(Cl)c1)[C@@]1(O)CCN(c2cnc3[nH]cc(I)c3c2)C1=O [Compound A34]
- IC50 (HUVEC): 0.0067 µM

Compound: NCCCCNC(=O)c1cc2cc(N3CC[C@](O)(C(=O)NCc4cc(F)cc(Cl)c4)C3=O)ccc2[nH]1 [Compound A35]
- IC50 (HUVEC): 0.051 µM

Compound: NC(=O)CC[C@H](NC(=O)c1cc2cc(N3CC[C@](O)(C(=O)NCc4cc(F)cc(Cl)c4)C3=O)ccc2[nH]1)C(=O)O [Compound A39]
- IC50 (HUVEC): 3.1 µM

Compound: NCCCNC(=O)c1cc2cc(N3CC[C@](O)(C(=O)NCc4cc(F)cc(Cl)c4)C3=O)ccc2[nH]1 [Compound A40]
- IC50 (HUVEC): 0.2 µM

Compound: O=C(NCc1cc(F)cc(Cl)c1)[C@@]1(O)CCN(c2ccc3c(c2)COB3O)C1=O [Compound A41]
- IC50 (HUVEC): 0.26 µM

Compound: O=C(NCc1cc(F)cc(Cl)c1)C1(O)CCN(c2ccc3c(c2)CS(=O)(=O)N3)C1=O (stereo not drawn) [Compound A42]
- IC50 (HUVEC): 1.3 µM

Compound: COc1ccc(CN2c3ccc(N4CCC(O)(C(=O)NCc5cc(F)cc(Cl)c5)C4=O)cc3CS2(=O)=O)cc1 (stereo not drawn) [Compound A43]
- IC50 (HUVEC): 0.82 µM

Compound: CC(C)C(NC(=O)CN1CCC(O)(C(=O)NCc2cc(F)cc(Cl)c2)C1=O)C(=O)N(C)C (stereo not drawn) [Compound A46]
- IC50 (HUVEC): 0.045 µM

Compound: O=C(NCc1cc(F)cc(Cl)c1)C1(O)CCN(c2ccc3c(c2)CC(C2CC2)N3)C1=O (stereo not drawn) [Compound A47]
- IC50 (HUVEC): 0.04 µM

Compound: NCCCNC(=O)[C@H](CCC(N)=O)NC(=O)c1cc2cc(N3CC[C@](O)(C(=O)NCc4cc(F)cc(Cl)c4)C3=O)ccc2[nH]1 [Compound A50]
- IC50 (HUVEC): 3.5 µM

Compound: CN(C)C(=O)CNC(=O)[C@H](CCC(N)=O)NC(=O)c1cc2cc(N3CC[C@](O)(C(=O)NCc4cc(F)cc(Cl)c4)C3=O)ccc2[nH]1 [Compound A51]
- IC50 (HUVEC): 8.1 µM

Compound: NC(=O)CC[C@H](NC(=O)c1cc2cc(N3CC[C@](O)(C(=O)NCc4cc(F)cc(Cl)c4)C3=O)ccc2[nH]1)C(=O)N[C@@H](Cc1ccccc1)C(N)=O [Compound A52]
- IC50 (HUVEC): 4.4 µM

Compound: O=C(NCc1cc(F)cc(Cl)c1)[C@@]1(O)CCN(c2cnc3[nH]cc(F)c3c2)C1=O [Compound A53]
- IC50 (HUVEC): 0.039 µM

Compound: O=C(NCc1cc(F)cc(Cl)c1)C1(O)CCN(c2ccc(C(F)F)cc2)C1=O (stereo not drawn) [Compound A60]
- IC50 (HUVEC): 1.8 µM

Compound: O=C(NCc1cc(F)cc(Cl)c1)[C@@]1(O)CCN(c2cnc3[nH]c(Cl)c(Cl)c3c2)C1=O [Compound A62]
- IC50 (HUVEC): 0.18 µM

Compound: CS(=N)(=O)c1ccc(N2CCC(O)(C(=O)NCc3cc(F)cc(Cl)c3)C2=O)cc1 (stereo not drawn) [Compound A64, 3-hydroxy-1-(4-methanesulfoximinoyl-phenyl)-2-oxo-pyrrolidine-3-carboxylic acid 3-chloro-5-fluoro-benzylamide]
- IC50 (HUVEC): 6.1 µM

Compound: O=C(NCc1cc(F)cc(Cl)c1)[C@@]1(O)CCN(c2ccc(OC(F)(F)F)cc2)C1=O [Compound A65]
- IC50 (HUVEC): 1.5 µM

Compound: O=C1Cc2cc(N3CC[C@](O)(C(=O)NCc4cc(F)cc(F)c4)C3=O)ccc2N1 [Compound A66]
- IC50 (HUVEC): 0.076 µM

Compound: O=C(NCc1cc(F)cc(Cl)c1)[C@@]1(O)CCN(c2cccc(OC(F)(F)F)c2)C1=O [Compound A67]
- IC50 (HUVEC): 0.29 µM

Compound: O=CNCCCCNC(=O)c1cc2cc(N3CC[C@](O)(C(=O)NCc4cc(F)cc(Cl)c4)C3=O)ccc2[nH]1 [Compound A68]
- IC50 (HUVEC): 0.11 µM

Compound: C[S@@](=N)(=O)c1ccc(N2CC[C@](O)(C(=O)NCc3cc(F)cc(Cl)c3)C2=O)cc1 [Compound A69]
- IC50 (HUVEC): 0.3 µM

Compound: C[S@](=N)(=O)c1ccc(N2CC[C@](O)(C(=O)NCc3cc(F)cc(Cl)c3)C2=O)cc1 [Compound A70]
- IC50 (HUVEC): 0.7 µM

Compound: CS(=N)(=O)c1cccc(N2CCC(O)(C(=O)NCc3cc(F)cc(Cl)c3)C2=O)c1 (stereo not drawn) [Compound A71]
- IC50 (HUVEC): 1.4 µM

Compound: O=C(NCc1cc(F)cc(Cl)c1)C1(O)CCN(c2ccc3c(c2)CCOB3O)C1=O (stereo not drawn) [Compound A74]
- IC50 (HUVEC): 0.014 µM
